Experimental data reported in patent publication US20060142204A1, “Pyrrolidine derivatives for use in treating heaptitis c virus infection” (GENOSCIENCE, priority 2002, published 2006).
Read-outs that look alike come from different tables or passages of the source. Non-standard residues stand in square brackets, D forms with d. Residues, ends and D or L forms follow the SMILES beside them. *: point of attachment. dGla = N[C@H](CC(C(=O)O)C(=O)O)C(=O)O; Hyp = O=C(O)[C@@H]1C[C@@H](O)CN1; Cha = N[C@@H](CC1CCCCC1)C(=O)O; Abu = CC[C@H](N)C(=O)O; tBu = CC(C)(C)*

How the values were obtained:
[1] = target: full-length NS3/NS4A complex (Hepatitis C virus genotype 1a, UniProt P27958); experiment: biochemical
full-length NS3/NS4A complex, sequence (P27958 1027-1657): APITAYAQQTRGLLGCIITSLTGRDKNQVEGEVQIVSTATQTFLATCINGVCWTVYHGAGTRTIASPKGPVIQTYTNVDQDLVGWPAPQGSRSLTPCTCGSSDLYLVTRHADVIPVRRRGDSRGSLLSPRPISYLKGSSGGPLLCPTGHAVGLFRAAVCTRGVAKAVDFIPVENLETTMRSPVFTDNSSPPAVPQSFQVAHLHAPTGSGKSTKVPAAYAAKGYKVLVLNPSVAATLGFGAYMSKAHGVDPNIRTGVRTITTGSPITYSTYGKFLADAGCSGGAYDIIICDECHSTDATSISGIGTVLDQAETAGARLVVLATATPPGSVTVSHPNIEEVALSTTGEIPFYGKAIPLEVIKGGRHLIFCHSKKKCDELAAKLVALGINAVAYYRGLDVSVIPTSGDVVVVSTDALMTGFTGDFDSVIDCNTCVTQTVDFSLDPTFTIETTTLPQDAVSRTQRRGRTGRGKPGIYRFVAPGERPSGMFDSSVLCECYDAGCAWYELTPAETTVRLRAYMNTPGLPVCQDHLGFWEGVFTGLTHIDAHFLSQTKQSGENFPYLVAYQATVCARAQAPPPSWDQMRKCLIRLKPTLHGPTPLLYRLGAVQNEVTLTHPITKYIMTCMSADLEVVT
full-length NS3/NS4A complex, sequence (P27958 1658-1711): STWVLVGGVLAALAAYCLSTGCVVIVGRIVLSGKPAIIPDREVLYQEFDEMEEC
From the text: Operating Method for HCV NS3-4A Activity Assay:
Inhibition data were obtained on the full-length NS3/NS4A complex. […] A summary of the NS3 protease activity assay is described bellow.
We used the full-length NS4A-NS3 protease and a recombinant EGPF-NS5A/B-CBD fusion protein serving as a fluorescent substrate for the determination of the compounds activity.
The fluorogenic substrate was built in three parts: a Green fluorescent protein (EGFP), a peptide corresponding to the NS5A-NS5B junctions ([…]) and a Cellulose Binding Domain (CBD). The NS5A/B is the more efficiently cleavage site for NS3 than at other cleavage site of HCV polyprotein (references 15). After cleavage reaction of EGFP-NS5A/B-CBD by NS3, the un-cleaved substrate and the C-terminal domain of cleaved substrate are fixed on cellulose. After centrifugation, the released free EGFP-NS5A was quantified by fluorometry.
The inhibitors were tested in triplicate in each experiment. The inhibitor was pre-incubated with the NS3 enzyme (50 nM final concentration) for 5 minutes at 37° C. The substrate was added (100 nM final concentration) and incubated at 37° C. for 40 minutes. Then, the reaction mixture was transferred into an Eppendorf containing 5 mg of pre-equilibrated cellulose with reaction buffer 1× and agitated at room temperature for 10 minutes followed by centrifugation for 5 min at 13000 rpm. The supernatant (100 μL) containing liberated green fluorescent protein was transferred to a black 96 well plate and data was collected by a fluorometer (excitation λ=485 nm, and emission λ=538 nm). For each black 96 well plate the control of the activity and inhibition of NS3 protease, fluorescence background noise and the measure of the total fluorescence were performed. The fluorogenic substrate EGFP-NS5A/B-CBD at 100 nM final concentration was incubated with NS3 protease at 50 nM final concentration for the control of the NS3 activity. The inhibitors Ac-Asp-D-Gla-Leu-Ile-β-cyclohexyl-Ala-Cys-OH (CHAC), (references 16) PMSF and TPCK were used at various concentrations to validate the inhibition of NS3 protease reaction. The fluorescence background noise was obtained with the fluorogenic substrate EGFP-NS5A/B-CBD at 100 nM, and the control of the maximum fluorescence was obtained with the fluorogenic substrate EGFP-NS5A/B-CBD at 100 nM without the step of the fixation on pre-equilibrated cellulose.

[2] = tested on: four different strains; experiment: ames test; settings: with or without metabolic activation
From the text: The compounds of the present invention present the advantage to be non bactericidal and/or non mutagenic. The ames test with four different strains, with or without metabolic activation, has been carried out with the above cited compounds (in particular, compound 5). The results thereof have shown that the compounds above identified (in particular, compound 5) are non mutagenic.

[3] = tested on: HCV; experiment: HCV replication in primary cultures of human hepatocytes infected in vitro; format: cell-based, HCV genotype 3 (serum S183) in human hepatocytes; settings: 1 μM of compound; hepatocyte cultures FT200, FT201, FT203; 5 days; FIG. 5
Protocol: More particularly, the in vitro primary cultures of human hepatocytes were prepared as follows: hepatocytes were prepared from liver tissue resected from donors who tested negative for HCV, and inoculation was performed 3 days after plating with 33 HCV serum samples of different virus load and genotype. The presence of intracellular HCV RNA, detected by a strand-specific rTth RT-PCR assay, was used as evidence of infection. […] At day 5, the copy level of viral RNA was estimated to be amplified at least 15-fold in infected cells. […] This model represents therefore a valuable tool for the study of initial steps of the HCV replication cycle and for the evaluation of antiviral molecules.
The basic protocol was as follows: 1) human hepatocytes extracted from liver lobectomies of HCV-negative patients were cultured in the long-term culture system mentioned above; 2) cells were then infected in vitro with an aliquot of serum from HCV-positive patients; 3) after a few days of culture (1 to 14 days), cellular RNA was extracted and analyzed for HCV RNA (+) and (−) strands using a highly specific rtTh. […]
RNA was extracted and analyzed using: first, rtTh RT-PCR and agarose gel electrophoresis (control of the presence of the replicative strand); and second, quantitative RT-PCR using (a) the genomic strand of HCV, and (b) GAPDH RNA/GAPDH RNA as an internal control. […]

[4] = enzyme 50 nM, substrate 100 nM, 37° C., 40 minutes, read-out: NS3 IC50

Row | SMILES | IC50 [1] [µM] | mutagenicity (ames test) [2] | IC50 [1, 4] [µM] | Inhibitory effect expressed as the ratio HCV RNA/GAPDH RNA [3]
1 | CC[C@H](C)[C@H](NC(=O)[C@H](CC(C)C)NC(=O)[C@@H](CC(C(=O)O)C(=O)O)NC(=O)[C@H](CC(=O)O)NC(C)=O)C(=O)N[C@@H](CC1CCCCC1)C(=O)N[C@@H](CS)C(=O)O [CHAC, Ac-Asp-D-Gla-Leu-Ile-β-cyclohexyl-Ala-Cys-OH, reference compound] (Ac-D[dGla]LI[Cha]C-OH) | 0.04 | – | – | –
2 | CC(C)(C)OC(=O)N[C@@H](CCC(=O)O)C(=O)N1C[C@H](OC(C)(C)C)C[C@H]1C(=O)NC(CC(F)(F)F)C(=O)O (stereo partly drawn) [Compound 5] | – | non mutagenic | 150 | significant inhibitory effect
3 | CC[C@H](NC(=O)[C@@H]1C[C@@H](OC(C)(C)C)CN1C(=O)[C@@H](NC(C)=O)C(C)C)C(=O)O [Compound 18] (Ac-Val-[Hyp](tBu)-[Abu]-OH) | – | – | 30 | –
4 | Cc1ccc(S(=O)(=O)NC(Cc2ccccc2)C(=O)CCl)cc1 [TPCK, L-1-4′-Tosylamino-2-phenylethyl chloromethyl ketone, reference compound] | 900 | – | – | –
